Experimental data from patent US11357749B2, “Methods for treating neutropenia” (Enzychem Lifesciences Corporation, priority 2014, dated 2022).

What was measured:
[1] = test system: STAT6; test: IL-4 induced STAT6 phosphorylation, western blot in U937, A549 and Jurkat cells; type: cell-based; settings: PLAG 0.01 to 10 μg/ml, 10 ng/ml IL-4, 15 min
Protocol: Dephosphorylation of STAT6 is examined using anti-phosphorylated STAT6 in U937, A549, and Jurkat cell lysates treated with PLAG concentration from 0.01 to 10 μg/ml. Phosphorylation of STAT6 is induced by treatment with 10 ng/ml of IL-4. Dephosphorylation of STAT1 is examined in the U937 cell lysate treated with PLAG (0.01 to 10 μg/ml). Phosphorylation of STAT1 is induced by 10 ng of IFN-γ treatment. Dephosphorylation of STAT1 and STAT6 is examined at 15 min after stimulation with IFN-γ and IL-4 respectively, in the PLAG pretreated cells. […] The transcriptional activity of STAT6 is decreased by the dephosphorylation of STAT6. […] No effect of PLAG on STAT1 phosphorylation is observed.

[2] = test system: C3; test: C3 in culture supernatant of HepG2 cells by ELISA; type: cell-based, human; settings: HepG2, PLAG 1 to 100 μg/ml, IL-4 and TNF-α, 18 hr
Protocol: The incubated HepG2 cell lines are treated with PLAG (1˜100 μg/ml), followed by IL-4 and TNF-α, reacted for 1 hour, incubated for 18 hours at 37° C. and the supernatant isolated. Quantitation of the amount of C3 in the cellular culture medium (supernatant) from HepG2 cells is performed by ELISA using a commercially available monoclonal antibody (mAb, R&D Systems) and the manufacture's protocol; the results are presented in FIG. 3. C3 is expressed spontaneously under in vitro culture condition using 10% FCS added to HepG2 cells incubated for 12 hr. The cells are treated with different doses of PLAG from 1 to 100 μg/ml (Panel A, Panel B) or 10 and 100 μg/ml of S6I (Panel C), reacted with IL-4 and TNF-α for 1 hr and then incubated for 18 hr at 37° C. Cellular viability is confirmed using the WST-1 assay (Panel A).

[3] = test system: neutrophils; test: Chemotherapy-induced neutropenia mouse model (neutrophil count, survival); type: in vivo, mice
Protocol: The effect of PLAG for treatment of neutropenia and thrombocytopenia induced by chemotherapy (CIN) is evaluated in an animal model. Anti-cancer agents (Gemcitabine 50 mg/kg, Cyclosphosphamide 100 mg/kg, or Tamoxifen 50 mg/kg) are dosed daily for 3 weeks; PLAG is also administered 50 mg/kg daily for 3 weeks. After three weeks, neutrophils are harvested and counted with Auto Hematology Analyzer BC-5300.

[4] = test system: platelets; test: Phenylhydrazine-induced platelet reduction in mice; type: in vivo; settings: PHZ 100 mg/kg i.p. + PLAG 5 mg/kg oral
Protocol: Mice are injected with 100 mg/kg phenylhydrazine (PHZ), i.p., to induce anemia and reduction of platelets. 5 mg/kg PLAG is administered to the mice orally and blood samples are taken at 3 and 13 days after. In addition, for comparison, normal mice which are not treated with phenylhydrazine are prepared as a normal group, and mice treated with PHZ and olive oil instead of PLAG are prepared as a control group. The blood samples taken from the mice are treated with 0.5 ml EDTA (Minicollect tube, Greiner bio-one, Austria) and concentration of platelet is measured using automated blood sample analyzer BC-6800 (Mindray, Shenzhen, China) by number of platelet per […] (k: 1,000).

[5] = test system: monocytes; test: Monocyte ratio in blood of LPS-treated C57BL/6 mice; type: in vivo; settings: C57BL/6 mouse, LPS + PLAG, ratio to total leukocytes
Protocol: To observe the ratio of neutrophil and lymphocyte in the blood of Balb/C mice, 1 mg/kg of lipopolysaccharide (LPS) is injected to mice, i.p. to induce inflammation. 5 mg/kg of PLAG is administered to the mice orally and blood samples are taken at 3 and 13 days after. In addition, for comparison, normal mice that are not treated with PLAG, receive PBS (phosphate buffered saline) and olive oil. The blood samples taken from the mice are treated with EDTA bottle 0.5 ml (Minocollect tube, Greiner bio-one, Austria) and the level of neutrophils (NEU) and lymphocytes (LYM) as a percentage of total leukocytes is measured using automated blood sample analyzer BC-6800 (Mindray, Shenzhen, China).
Except for using C57BL/6 mouse instead of Balb/C mouse, mice are treated in the same manner as Example 6, the monocyte ratio (Mono) to total leukocytes is measured and the results are shown in Table 5.

[6] = test system: neutrophils, lymphocytes and eosinophils; test: Neutrophil, lymphocyte and eosinophil ratio after Tamoxifen and PLAG in mice; type: in vivo; settings: Tam 100 mg/kg + PLAG 5 mg/kg, after 15 hours
Protocol: 100 mg/kg of anticancer agent Tamoxifen (Tam) is used to induce reduction of neutrophils, followed by treated with 5 mg/kg of PLAG and the ratios of neutrophil (NEU), lymphocyte (LYM), and eosinophil (EOS) are measured after 15 hours as in the previous experiment.

[7] = test system: C4; test: Clinical study in healthy subjects: C4 in blood; type: in vivo, human
[8] = test system: bone marrow-derived HSC; test: In vitro colony formation in bone marrow-derived HSC; type: cell-based
[9] = stated as known; cited from earlier work

CCCCC/C=C\C/C=C\CCCCCCCC(=O)OC(COC(C)=O)COC(=O)CCCCCCCCCCCCCCC (racemic) [PLAG, 1-palmitoyl-2-linoleoyl-3-acetylglycerol]
IL-4 induced STAT6 phosphorylation ([1]; A549 cells): inhibited with increasing PLAG concentrations
IL-4 induced STAT6 phosphorylation ([1]; Jurkat cells): inhibited with increasing PLAG concentrations
IL-4 induced STAT6 phosphorylation ([1]; U937 cells): inhibited with increasing PLAG concentrations
expression of C3 in supernatant (ELISA) [2]: decreased dose-dependently
reduced neutrophil count following chemotherapy ([3]; Gemcitabine 50 mg/kg, Cyclosphosphamide 100 mg/kg or Tamoxifen 50 mg/kg daily, PLAG 50 mg/kg daily, 3 weeks): prevented
survival rate ([3]; PLAG with Gemcitabine vs Gemcitabine alone): improved survival rate
activities and survival rate ([3]; Tamoxifen 50 mg/kg co-treated with PLAG vs Tamoxifen only): faster improvement of activities and survival rate
neutrophil score ([3]; mice treated with PLAG 50 mg/kg and Gemcitabine 50 mg/kg daily, 3 weeks): improved significantly
neutrophil count ([3]; mice treated with PLAG 50 mg/kg and cyclophosphamide 100 mg/kg daily, 3 weeks, vs control group): improved significantly
Platelet (day 3) Conc ([4]; day 3): 1072 ± 125.4 k/ul
Platelet (day 13) Conc ([4]; day 13): 1188.8 ± 115.6 k/ul
Monocyte ratio [5]: 18.4 ± 6.6%
Eosinophil Ratio [6]: 15.1 ± 0.3%
Lymphocyte ratio [6]: 45.7 ± 4.1%
Neutrophil Ratio [6]: 35.2 ± 2.4%
C4, After ([7]; healthy subjects n = 27, 500 mg PLAG per day oral, after 4-wk intervention): 20.8 ± 5.6 mg/dL
C4, Before ([7]; healthy subjects n = 27, before PLAG supplementation): 21.6 ± 6.6 mg/dL
colony formation [8]: increased colony formation
toxicity in GLP toxicity test [9]: no toxicity
